According to EPA's aquatic toxicity sets:

test system: Tetrahymena pyriformis; assay: 48 h IGC50 (-log10 mol/L); higher = more toxic

Row | SMILES | 48 h IGC50 (-log10 mol/L)
1 | C=COC(=O)c1ccccc1 | 3.08
2 | CCOC(=O)C(Br)CC (stereo unspecified) | 3.76
3 | CCC(C)C(=O)OC (stereo unspecified) | 1.83
4 | Cc1cccc(CO)c1 | 2.76
5 | CC(C)(CO)CBr | 2.54
6 | CC=CC(=O)OC(C)C | 2.22
7 | C=CC(=O)OCCCC | 3.52
8 | c1cnc2c(c1)ccc1ncccc12 | 4.07
9 | Oc1c(Cl)cccc1Cl | 3.73
10 | CCCOC(=O)/C=C/c1ccccc1 | 4.23
11 | OCCCCCCCCCl | 3.49
12 | CCCOC(=O)CC | 2.19
13 | C/C=C(\C)C=O | 2.86
14 | CCCCCCC(=O)O | 2.89
15 | CC(C)C(N)CO (stereo unspecified) | 2.42
16 | CCCCCCC#CCCO | 4.13
17 | O=Cc1cc(Cl)cc(Cl)c1O | 4.55
18 | CCC(C)CN (stereo unspecified) | 2.52
19 | COC(=O)CCCC(=O)OC | 1.83
20 | NC(CO)CO | 1.32
21 | CC(C)COC=O | 1.69

Row | SMILES | 48 h IGC50 (-log10 mol/L)
22 | CCCCCOC(=O)c1ccccc1 | 4.37
23 | CCCOC(=O)CCl | 4.18
24 | CCN(CC)C(C)=O | 1.46
25 | CCCCS(=O)(=O)CCCC | 2.74
26 | O=[N+]([O-])c1ccc(CCl)cc1 | 4.18
27 | COc1cc(O)ccc1O | 5.2
28 | OCc1cccc(Cl)c1 | 3.15
29 | CC(=O)C(C)Cl (stereo unspecified) | 3.27
30 | CC(CN)c1ccccc1 (stereo unspecified) | 2.72
31 | Cc1ccc(O)c(O)c1 | 3.37
32 | Cc1cc(C)c(C)c(O)c1 | 3.36
33 | NCCc1ccccn1 | 2.26
34 | Oc1c(F)c(F)c(F)c(F)c1F | 4.63
35 | O=C(O)CCCCCl | 2.71
36 | Oc1cccc(O)c1O | 3.85
37 | O=C(Oc1cccc(O)c1)c1ccccc1 | 4.11
38 | CCCCCCCCOC(C)=O | 4.06
39 | CCCCCCC/C=C/C=O | 4.85
40 | Nc1cc(Cl)ccc1O | 3.78
41 | C/C=C/C(=O)OC(C)CC (stereo unspecified) | 2.58
42 | O=C(CBr)C(=O)CBr | 4.76

Row | SMILES | 48 h IGC50 (-log10 mol/L)
43 | NC(=S)NCc1ccccc1 | 3.66
44 | Nc1cccc(I)c1 | 3.65
45 | CC=C(C)C(=O)OCC | 2.5
46 | Cc1ccc(Cl)c(N)c1Cl | 3.69
47 | Brc1ccccn1 | 2.46
48 | COCCCN | 1.23
49 | NC(=O)CI | 4.85
50 | CCCCCCCN | 3.21
51 | COc1cccc2ccccc12 | 3.8
52 | C=CCBr | 3.57
53 | CCOC(=O)CCCCCBr | 3.59
54 | C=CC(=O)OCCC | 3.53
55 | O=Cc1ccc(-c2ccccc2)cc1 | 4.12
56 | CCCCOC(=O)c1ccc(O)cc1 | 4.33
57 | BrCCCc1ccccc1 | 3.69
58 | C#CCOC(=O)C=C | 4.06
59 | C#CCCCCO | 1.71
60 | CS(C)(=O)=O | 0.8
61 | N#CCCCCl | 2.07
62 | Nc1ccc([N+](=O)[O-])cc1[N+](=O)[O-] | 3.72
63 | COC(N)=O | 1.02

Row | SMILES | 48 h IGC50 (-log10 mol/L)
64 | CCC(=O)OCC(C)C | 2.31
65 | C/C=C(\C)C(=O)OC | 2.38
66 | NC(=O)c1ccc(N)cc1 | 2.09
67 | CCC[C@H](O)c1ccccc1 | 2.91
68 | CCCC(=O)OC | 1.75
69 | CC(C)(C)c1cc([N+](=O)[O-])c(O)c([N+](=O)[O-])c1 | 4.8
70 | O=C(CBr)c1ccccc1 | 5.82
71 | CCCCCCCCCCCN | 5.33
72 | OCCc1ccc(O)cc1 | 2.17
73 | CCCCCC#CC=O | 4.72
74 | CCOc1ccc(C(=O)OC)cc1 | 3.58
75 | Cc1cc([N+](=O)[O-])ccc1Br | 4.16
76 | CSc1ccccc1 | 3.18
77 | CC(O)(Cc1ccccc1)c1ccccc1 (stereo unspecified) | 3.8
78 | Clc1cc(Cl)cc(Cl)c1 | 3.87
79 | O=C1CCCO1 | 1.28
80 | O=[N+]([O-])c1ccc(Br)s1 | 4.41
81 | N#CCc1ccccc1 | 2.64
